Results as given in patent EP1803452A1, “ESTER DERIVATIVE AND PHARMACEUTICAL USE THEREOF” (Japan Tobacco, Inc., priority 2004, dated 2006).

Legend:
[1] = Metabolic stability test in plasma; type: in vitro ADME, human; details: LC/MS; for remaining at 10 min: unchanged form after 10 minutes at 37°C in human plasma, read-out: Remaining rate in human plasma (%/10min); for remaining at 1 h: unchanged form after 60 minutes at 37°C in human plasma, read-out: Remaining rate in human plasma (%/60min)
How it was run: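 Compound in DMSO spiked into human, mouse or hamster plasma, incubated at 37°C for 0, 10 and 60 minutes, then quenched with acetonitrile/formic acid (final 0.1%). Unchanged compound in supernatant quantified by LC/MS; remaining rate (%) relative to time zero.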

[2] = Stability test in buffer (pH 7.4); type: physicochemical; details: phosphate buffer/acetonitrile 7:3, 100 mM potassium phosphate buffer (pH 7.4) and acetonitrile 7:3 (v/v), LC/MS; for remaining at 10 min: 10 minutes at 37°C, read-out: Buf. remaining rate (%/10min); for remaining at 1 h: 60 minutes at 37°C, read-out: Buf. remaining rate (%/60min)
How it was run: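 Compound from DMSO solution incubated at 37°C in 100 mM potassium phosphate buffer/acetonitrile 7:3 (v/v) for 0, 10 and 60 min, then quenched with acetonitrile containing formic acid (final 0.1%). Unchanged compound in supernatant quantified by LC/MS; remaining rate (%) = amount at each time / amount at zero time × 100.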

[3] = Metabolic stability test in liver S9; type: in vitro ADME; details: pH 7.4, human liver S9 2 mg protein/mL, LC/MS; for remaining at 10 min: unchanged form after 10 minutes at 37°C, read-out: Remaining rate in human liver S9 (%/10min); for remaining at 1 h: unchanged form after 60 minutes at 37°C, read-out: Remaining rate in human liver S9 (%/60min)
How it was run: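 Compound from DMSO solution was incubated at 37°C with human liver S9 (final 2 mg protein/mL) in 100 mM potassium phosphate pH 7.4 with an NADPH-regenerating system for 0, 10 and 60 minutes. Reactions were stopped with acetonitrile/0.1% formic acid. Unchanged compound was measured by LC/MS as remaining rate (%) relative to zero time.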

Row | remaining at 10 min [1] [%] | remaining at 1 h [1] [%] | remaining at 10 min [2] [%] | remaining at 1 h [2] [%] | remaining at 10 min [3] [%] | remaining at 1 h [3] [%] | Compound
1 | 53 | 0 | 102 | 105 | 0 | 0 | CCOC(=O)c1ccc(OC(=O)CCCc2ccc(NC(=O)c3ccc(C)nc3-c3ccc(C(F)(F)F)cc3)c(C(=O)N(C)C)c2)cc1 [Compound 1-71, 4-[4-(3-dimethylcarbamoyl-4-{[6-methyl-2-(4-trifluoromethylphenyl)pyridine-3-carbonyl]amino}phenyl)butyryloxy]benzoic acid ethyl ester]
2 | 0 | 0 | 113 | 112 | 4 | 0 | COC(=O)c1cc(C(=O)OC(C)C)ccc1OC(=O)CCCc1ccc(NC(=O)c2ccc(C)nc2-c2ccc(C(F)(F)F)cc2)c(C(=O)N(C)C)c1 [Compound 1-72, 4-[4-(3-dimethylcarbamoyl-4-{[6-methyl-2-(4-trifluoromethylphenyl)pyridine-3-carbonyl]amino}phenyl)butyryloxy]isophthalic acid 1-isopropyl ester 3-methyl ester]
3 | 78 | 19 | 101 | 101 | 10 | 0 | CCc1cc(C(=O)OC)cc(Cl)c1OC(=O)CCCc1ccc(NC(=O)c2ccc(C)nc2-c2ccc(C(F)(F)F)cc2)c(C(=O)N(C)C)c1 [Compound 1-73, 3-chloro-4-[4-(3-dimethylcarbamoyl-4-{[6-methyl-2-(4-trifluoromethylphenyl)pyridine-3-carbonyl]amino}phenyl)butyryloxy]-5-ethylbenzoic acid methyl ester]
4 | 77 | 19 | 102 | 101 | 24 | 9 | COC(=O)c1cc(Cl)c(OC(=O)CCCc2ccc(NC(=O)c3ccc(C)nc3-c3ccc(C(F)(F)F)cc3)c(C(=O)N(C)C)c2)c(C(C)C)c1 [Compound 1-74, 3-chloro-4-[4-(3-dimethylcarbamoyl-4-{[6-methyl-2-(4-trifluoromethylphenyl)pyridine-3-carbonyl]amino}phenyl)butyryloxy]-5-isopropylbenzoic acid methyl ester]
5 | 0 | 0 | 113 | 124 | 23 | 3 | CCCOC(=O)c1cc(Cl)c(OC(=O)CCCc2ccc(NC(=O)c3ccc(C)nc3-c3ccc(C(F)(F)F)cc3)c(C(=O)N(C)C)c2)c(OC)c1 [Compound 1-75, 3-chloro-4-[4-(3-dimethylcarbamoyl-4-{[6-methyl-2-(4-trifluoromethylphenyl)pyridine-3-carbonyl]amino}phenyl)butyryloxy]-5-methoxybenzoic acid propyl ester]
6 | 50 | 1 | 99 | 100 | 5 | 2 | CC(C)OCCOC(=O)c1ccc(OC(=O)CCCc2ccc(NC(=O)c3ccccc3-c3ccc(C(F)(F)F)cc3)c(C(=O)N(C)C)c2)cc1 [Compound 1-76, 4-[4-(3-dimethylcarbamoyl-4-{(4'-trifluoromethylbiphenyl-2-carbonyl)amino}phenyl)butyryloxy]benzoic acid 2-isopropoxyethyl ester]
7 | 59 | 2 | 99 | 100 | 0 | 0 | CC(=O)NCCOC(=O)c1ccc(OC(=O)CCCc2ccc(NC(=O)c3ccccc3-c3ccc(C(F)(F)F)cc3)c(C(=O)N(C)C)c2)cc1 [Compound 1-77, 4-[4-(3-dimethylcarbamoyl-4-{(4'-trifluoromethylbiphenyl-2-carbonyl)amino}phenyl)butyryloxy]benzoic acid 2-acetylaminoethyl ester]
8 | 51 | 2 | 97 | 97 | 10 | 2 | CN(C)C(=O)c1cc(CCCC(=O)Oc2ccc(C(=O)OCC(=O)OCc3ccccc3)cc2)ccc1NC(=O)c1ccccc1-c1ccc(C(F)(F)F)cc1 [Compound 1-78, 4-[4-(3-dimethylcarbamoyl-4-{(4'-trifluoromethylbiphenyl-2-carbonyl)amino}phenyl)butyryloxy]benzoic acid benzyloxycarbonylmethyl ester]
9 | 0 | 0 | 96 | 95 | 20 | 4 | CN(C)C(=O)c1cc(CCCC(=O)Oc2ccc(C(=O)OCc3ccc(Cl)cc3)cc2)ccc1NC(=O)c1ccccc1-c1ccc(C(F)(F)F)cc1 [Compound 1-79, 4-[4-(3-dimethylcarbamoyl-4-{(4'-trifluoromethylbiphenyl-2-carbonyl)amino}phenyl)butyryloxy]benzoic acid 4-chlorobenzyl ester]
10 | 4 | 0 | 100 | 101 | 5 | 0 | Cc1ccc(C(=O)Nc2ccc(CCCC(=O)Oc3ccc(C(=O)OCc4ccccc4)cc3)cc2C(=O)N(C)C)c(-c2ccc(C(F)(F)F)cc2)n1 [Compound 1-80, 4-[4-(3-dimethylcarbamoyl-4-{[6-methyl-2-(4-trifluoromethylphenyl)pyridine-3-carbonyl]amino}phenyl)butyryloxy]benzoic acid benzyl ester]
11 | 51 | 2 | 99 | 97 | 4 | 1 | Cc1ccc(C(=O)Nc2ccc(CCCC(=O)Oc3ccc(C(=O)OC(C)C)cc3)cc2C(=O)N(C)C)c(-c2ccc(C(F)(F)F)cc2)n1 [Compound 1-81, 4-[4-(3-dimethylcarbamoyl-4-{[6-methyl-2-(4-trifluoromethylphenyl)pyridine-3-carbonyl]amino}phenyl)butyryloxy]benzoic acid isopropyl ester]
12 | 17 | 0 | 100 | 103 | 0 | 0 | CN(C)C(=O)c1cc(CCCC(=O)Oc2ccc(C(=O)OCc3ccccn3)cc2)ccc1NC(=O)c1ccccc1-c1ccc(C(F)(F)F)cc1 [Compound 1-82, 4-[4-(3-dimethylcarbamoyl-4-{(4'-trifluoromethylbiphenyl-2-carbonyl)amino}phenyl)butyryloxy]benzoic acid pyridin-2-ylmethyl ester]
13 | 39 | 0 | 99 | 99 | 0 | 0 | CN(C)C(=O)c1cc(CCCC(=O)Oc2ccc(C(=O)OCc3cccnc3)cc2)ccc1NC(=O)c1ccccc1-c1ccc(C(F)(F)F)cc1 [Compound 1-83, 4-[4-(3-dimethylcarbamoyl-4-((4'-trifluoromethylbiphenyl-2-carbonyl)amino}phenyl)butyryloxy]benzoic acid pyridin-3-ylmethyl ester]
14 | 21 | 0 | 99 | 101 | 1 | 0 | CN(C)C(=O)c1cc(CCCC(=O)Oc2ccc(C(=O)OCc3ccncc3)cc2)ccc1NC(=O)c1ccccc1-c1ccc(C(F)(F)F)cc1 [Compound 1-84, 4-[4-(3-dimethylcarbamoyl-4-{(4'-trifluoromethylbiphenyl-2-carbonyl)amino}phenyl)butyryloxy]benzoic acid pyridin-4-ylmethyl ester]
15 | 61 | 4 | 103 | 102 | 0 | 0 | CN(C)C(=O)COC(=O)c1ccc(OC(=O)CCCc2ccc(NC(=O)c3ccccc3-c3ccc(C(F)(F)F)cc3)c(C(=O)N(C)C)c2)cc1 [Compound 1-85, 4-[4-(3-dimethylcarbamoyl-4-{(4'-trifluoromethylbiphenyl-2-carbonyl)amino}phenyl)butyryloxy]benzoic acid dimethylcarbamoylmethyl ester]
16 | 40 | 0 | 99 | 103 | 0 | 0 | COC(=O)COC(=O)c1ccc(OC(=O)CCCc2ccc(NC(=O)c3ccccc3-c3ccc(C(F)(F)F)cc3)c(C(=O)N(C)C)c2)cc1 [Compound 1-86, 4-[4-(3-dimethylcarbamoyl-4-{(4'-trifluoromethylbiphenyl-2-carbonyl)amino}phenyl)butyryloxy]benzoic acid methoxycarbonylmethyl ester]
